Laboratory results as given in US20120196858A1, “METHOD OF PROMOTING APOPTOSIS AND INHIBITING METASTASIS” (Poniard Pharmaceuticals ,Inc., priority 2009, published 2012).

How the values were obtained:
Experiment in all cases: Millipore KinaseProfiler selectivity screen
Format in all cases: biochemical
[1] = molecular target: T1, Flt3 (FMS-like tyrosine kinase 3) (Homo sapiens, UniProt P36888)
T1 construct: purchased Millipore (KinaseProfiler service)
Protocol: (§1) Baculovirus FAK catalytic domain and in vitro kinase assays: The FAK catalytic domain region (411-686) was generated by polymerase chain reaction using the primers 5′-[…]-3′ 5′-[…]-3′, cloned into pGEX4T as a fusion with GST, and moved into the pAcG2T baculovirus expression vector (Pharmingen, Baculogold). Virus clones were identified by plaque assays and amplified. For protein expression, SF9 cells were transduced at a multiplicity of infection of 2-5 pfu/cell and cultured at 27° C. for 48 h. Glutathione agarose affinity chromatography were used to purify GST-FAK (411-686) followed by size fractionation using hiload 16/60 Superdex chromatography (GE Healthcare). Protein was concentrated and stored frozen in 50 mM Tris pH 8.0, 150 mM NaCl, 1 mM Na orthovanadate, 0.5 mM EDTA, 0.5 mM EGTA, 0.1% β-mercaptoethanol, and 20% glycerol. Purity was estimated at >90% by SDS-PAGE. GST-FAK in vitro kinase activity was measured and compared to His-tagged FAK 411-686 (Millipore) using the K-LISA screening kit (Calbiochem) and poly(Glu:Tyr) (4:1) copolymer (P0275, Sigma) as a substrate immobilized on microtiter plates. […] Serial diluted compounds at ½-Log concentrations (starting at 1 μM) were tested in triplicate. Substrate phosphorylation was measured using horseradish peroxidase-conjugated anti-pTyr antibodies (PY20, Santa Cruz Biotechnology) with spetrophotometic color quantitation. IC50 values were determined using the Hill-Slope Model. Kinase selectivity profiling was performed by using the KinaseProfiler service (Millipore).

[2] = molecular target: T2, TrkA (tropomyosin-related kinase A) (Homo sapiens, UniProt P04629)
T2 construct: purchased Millipore (KinaseProfiler service)
Protocol: as §1

[3] = molecular target: T3, ACK1 (activated Cdc42-associated tyrosine kinase 1) (Homo sapiens, UniProt Q07912)
T3 construct: purchased Millipore (KinaseProfiler service)
Protocol: as §1

insulin receptor (IR) = molecular target: T4, insulin receptor (IR) (Homo sapiens, UniProt P06213); conditions: read-out: kinase inhibition
T4 construct: purchased Millipore (KinaseProfiler service)
Protocol: as §1

T1 sequence (P36888 27-993): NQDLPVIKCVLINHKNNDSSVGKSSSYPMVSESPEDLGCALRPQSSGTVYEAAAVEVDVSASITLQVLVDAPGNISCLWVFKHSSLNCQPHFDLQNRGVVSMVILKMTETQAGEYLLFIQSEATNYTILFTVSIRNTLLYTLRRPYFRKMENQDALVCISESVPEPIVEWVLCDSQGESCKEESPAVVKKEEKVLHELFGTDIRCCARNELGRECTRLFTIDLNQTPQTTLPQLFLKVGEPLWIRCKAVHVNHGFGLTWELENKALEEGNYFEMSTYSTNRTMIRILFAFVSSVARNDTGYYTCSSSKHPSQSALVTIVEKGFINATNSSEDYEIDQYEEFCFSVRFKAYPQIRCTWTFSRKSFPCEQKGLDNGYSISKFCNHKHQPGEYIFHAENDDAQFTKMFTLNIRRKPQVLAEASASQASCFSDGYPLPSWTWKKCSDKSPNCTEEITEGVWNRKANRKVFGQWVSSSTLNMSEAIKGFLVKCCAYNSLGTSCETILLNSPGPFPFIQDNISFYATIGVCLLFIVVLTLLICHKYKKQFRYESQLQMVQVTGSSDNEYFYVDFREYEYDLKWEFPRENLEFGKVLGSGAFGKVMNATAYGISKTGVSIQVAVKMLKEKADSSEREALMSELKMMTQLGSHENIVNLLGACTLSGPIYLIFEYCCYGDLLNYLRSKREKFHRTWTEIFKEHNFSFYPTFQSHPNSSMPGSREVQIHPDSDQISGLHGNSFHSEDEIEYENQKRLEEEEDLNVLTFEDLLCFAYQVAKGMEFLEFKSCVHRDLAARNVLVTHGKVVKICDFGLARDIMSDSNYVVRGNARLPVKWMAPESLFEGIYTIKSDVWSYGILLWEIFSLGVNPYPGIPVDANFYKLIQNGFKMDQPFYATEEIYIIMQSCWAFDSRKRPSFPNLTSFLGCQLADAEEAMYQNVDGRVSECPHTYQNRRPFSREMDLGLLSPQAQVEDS
T4 sequence (P06213 28-1382): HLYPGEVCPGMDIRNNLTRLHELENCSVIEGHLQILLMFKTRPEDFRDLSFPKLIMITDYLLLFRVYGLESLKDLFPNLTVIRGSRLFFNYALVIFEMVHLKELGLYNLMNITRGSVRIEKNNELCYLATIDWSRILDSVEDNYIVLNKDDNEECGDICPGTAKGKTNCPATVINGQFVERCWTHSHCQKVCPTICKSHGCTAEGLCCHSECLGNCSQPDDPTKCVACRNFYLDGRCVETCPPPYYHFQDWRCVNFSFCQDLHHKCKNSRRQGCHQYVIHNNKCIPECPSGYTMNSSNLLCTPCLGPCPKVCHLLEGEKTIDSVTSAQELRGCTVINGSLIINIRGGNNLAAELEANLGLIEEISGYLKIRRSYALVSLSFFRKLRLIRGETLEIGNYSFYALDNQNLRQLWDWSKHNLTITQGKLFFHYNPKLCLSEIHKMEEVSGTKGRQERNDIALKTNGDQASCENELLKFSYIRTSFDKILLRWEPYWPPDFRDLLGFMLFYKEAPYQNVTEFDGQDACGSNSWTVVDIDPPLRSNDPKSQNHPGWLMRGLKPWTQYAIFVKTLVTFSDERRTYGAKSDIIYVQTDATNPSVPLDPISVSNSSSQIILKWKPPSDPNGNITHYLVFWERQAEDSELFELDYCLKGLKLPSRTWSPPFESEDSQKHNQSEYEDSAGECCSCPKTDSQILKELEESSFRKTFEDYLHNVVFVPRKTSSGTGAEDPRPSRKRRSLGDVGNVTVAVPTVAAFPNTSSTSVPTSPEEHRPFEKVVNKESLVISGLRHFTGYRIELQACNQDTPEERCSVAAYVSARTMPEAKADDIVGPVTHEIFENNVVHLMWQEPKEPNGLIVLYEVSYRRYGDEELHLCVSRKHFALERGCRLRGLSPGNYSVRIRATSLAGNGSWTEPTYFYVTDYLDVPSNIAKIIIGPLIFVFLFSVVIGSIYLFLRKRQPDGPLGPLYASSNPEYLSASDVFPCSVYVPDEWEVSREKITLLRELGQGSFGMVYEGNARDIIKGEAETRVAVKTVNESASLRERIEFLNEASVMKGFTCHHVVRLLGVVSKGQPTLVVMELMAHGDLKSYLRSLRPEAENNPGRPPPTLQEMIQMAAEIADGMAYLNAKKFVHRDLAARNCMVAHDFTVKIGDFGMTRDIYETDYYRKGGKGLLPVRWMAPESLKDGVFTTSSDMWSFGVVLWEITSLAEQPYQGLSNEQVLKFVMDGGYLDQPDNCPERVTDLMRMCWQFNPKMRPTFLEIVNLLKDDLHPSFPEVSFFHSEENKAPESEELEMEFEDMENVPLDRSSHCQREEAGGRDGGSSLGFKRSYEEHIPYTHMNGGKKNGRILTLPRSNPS
T3 sequence (Q07912 whole entry): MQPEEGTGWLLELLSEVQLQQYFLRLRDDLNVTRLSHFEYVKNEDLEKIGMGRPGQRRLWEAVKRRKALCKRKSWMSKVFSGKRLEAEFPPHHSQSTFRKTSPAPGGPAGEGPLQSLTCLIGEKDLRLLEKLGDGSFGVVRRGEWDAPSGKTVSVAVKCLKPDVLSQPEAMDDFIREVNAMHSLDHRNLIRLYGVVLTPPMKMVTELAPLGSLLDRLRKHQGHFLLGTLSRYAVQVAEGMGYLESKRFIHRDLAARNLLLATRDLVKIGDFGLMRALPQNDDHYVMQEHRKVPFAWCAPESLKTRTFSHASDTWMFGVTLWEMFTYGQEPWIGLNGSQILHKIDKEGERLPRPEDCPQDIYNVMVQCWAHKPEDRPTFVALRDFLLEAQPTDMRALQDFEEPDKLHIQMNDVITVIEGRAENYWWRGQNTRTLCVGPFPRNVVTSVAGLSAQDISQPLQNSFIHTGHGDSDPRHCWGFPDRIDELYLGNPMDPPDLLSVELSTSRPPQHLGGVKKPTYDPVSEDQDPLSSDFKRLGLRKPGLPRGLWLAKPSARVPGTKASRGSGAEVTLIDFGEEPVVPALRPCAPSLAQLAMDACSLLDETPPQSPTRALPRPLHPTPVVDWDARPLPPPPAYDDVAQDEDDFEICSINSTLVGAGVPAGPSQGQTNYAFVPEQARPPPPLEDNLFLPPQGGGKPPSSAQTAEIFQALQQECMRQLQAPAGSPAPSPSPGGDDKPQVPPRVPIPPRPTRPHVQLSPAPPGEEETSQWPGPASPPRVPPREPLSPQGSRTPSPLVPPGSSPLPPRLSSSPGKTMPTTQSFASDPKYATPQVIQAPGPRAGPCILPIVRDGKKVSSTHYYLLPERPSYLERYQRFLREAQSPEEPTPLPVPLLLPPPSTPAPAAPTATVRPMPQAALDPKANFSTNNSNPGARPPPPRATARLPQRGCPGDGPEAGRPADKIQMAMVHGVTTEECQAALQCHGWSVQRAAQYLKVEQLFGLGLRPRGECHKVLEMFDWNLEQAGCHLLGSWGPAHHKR
T2 sequence (P04629 33-796): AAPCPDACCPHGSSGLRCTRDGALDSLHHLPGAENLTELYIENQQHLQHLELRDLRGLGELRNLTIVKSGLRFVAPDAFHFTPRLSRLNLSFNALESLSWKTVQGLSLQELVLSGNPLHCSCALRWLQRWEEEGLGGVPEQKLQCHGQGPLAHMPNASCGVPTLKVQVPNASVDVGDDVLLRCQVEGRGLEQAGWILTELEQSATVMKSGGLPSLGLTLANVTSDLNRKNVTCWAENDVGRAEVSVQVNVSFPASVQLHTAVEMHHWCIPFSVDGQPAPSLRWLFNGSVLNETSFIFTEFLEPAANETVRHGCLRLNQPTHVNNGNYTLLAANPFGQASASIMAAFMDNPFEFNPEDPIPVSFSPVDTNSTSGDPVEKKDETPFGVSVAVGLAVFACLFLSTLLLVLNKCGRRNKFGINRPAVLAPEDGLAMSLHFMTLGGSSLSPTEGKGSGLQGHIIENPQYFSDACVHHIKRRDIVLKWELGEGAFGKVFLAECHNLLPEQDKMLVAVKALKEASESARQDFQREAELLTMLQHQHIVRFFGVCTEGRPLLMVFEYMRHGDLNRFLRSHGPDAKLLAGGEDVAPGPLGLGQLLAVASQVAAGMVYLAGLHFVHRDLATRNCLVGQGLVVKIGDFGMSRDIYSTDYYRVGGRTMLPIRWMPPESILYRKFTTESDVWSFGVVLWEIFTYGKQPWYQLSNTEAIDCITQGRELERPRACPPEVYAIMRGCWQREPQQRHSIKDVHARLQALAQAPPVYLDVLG

CNC(=O)c1ccccc1Nc1cc(Nc2ccc(N3CCOCC3)cc2OC)ncc1C(F)(F)F [PND-1186]
kinase inhibition specificity ([1]; 0.1 μM PND-1186): displayed specificity for FAK as well as Flt3
remaining kinase activity ([1]; 1 μM PND-1186): negligible activity
inhibition at 1 µM [2]: > 50%
inhibition at 1 µM [3]: > 50%
inhibition at 1 µM (insulin receptor (IR)): > 50%
